Test results: the NIST ThermoML archive (doi:10.1016/j.fluid.2010.03.042)

Test: xn = mol fraction of the nth substance listed
Settings: Liquid, Vibrating tube method

CCCCO [butan-1-ol] + O=C=O
Settings	mass density [kg/m3]
313.22 K, x2 = 0.1294	806.8
313.22 K, x2 = 0.2204	816.8
313.22 K, x2 = 0.2354	818.6
313.22 K, x2 = 0.3409	823.7
313.22 K, x2 = 0.4311	826.1
313.22 K, x2 = 0.5847	827.7
313.22 K, x2 = 0.8543	797
363.17 K, x2 = 0.1186	711.3
363.17 K, x2 = 0.1985	762
363.17 K, x2 = 0.2821	764.7
363.17 K, x2 = 0.3623	765.5
363.17 K, x2 = 0.4604	765.5
363.17 K, x2 = 0.5637	760.6
363.17 K, x2 = 0.6867	750.9
363.17 K, x2 = 0.7105	745.8
363.17 K, x2 = 0.7597	726.6

CCC(C)O (centres undefined) [butan-2-ol] + O=C=O
Settings	mass density [kg/m3]
313.21 K, x2 = 0.166	795.6
313.21 K, x2 = 0.2247	807.4
313.21 K, x2 = 0.3339	813.7
313.21 K, x2 = 0.435	816.8
313.21 K, x2 = 0.5177	818.9
313.21 K, x2 = 0.6282	818.5
313.21 K, x2 = 0.7453	817.2
313.21 K, x2 = 0.7457	817.5
313.21 K, x2 = 0.8604	815.4
313.21 K, x2 = 0.9197	813.8
333.12 K, x2 = 0.137	771.6
333.12 K, x2 = 0.2174	782.3
333.12 K, x2 = 0.3029	786.1
333.12 K, x2 = 0.3944	790.2
333.12 K, x2 = 0.4533	791.8
333.12 K, x2 = 0.5642	790.7
333.12 K, x2 = 0.6485	787.2
333.12 K, x2 = 0.7937	775.5
333.12 K, x2 = 0.8376	758.6
363.06 K, x2 = 0.1273	743.6
363.06 K, x2 = 0.1978	746.7
363.06 K, x2 = 0.2588	747.7
363.06 K, x2 = 0.2793	748.3
363.06 K, x2 = 0.3584	743.8
363.06 K, x2 = 0.4344	738.3
363.06 K, x2 = 0.5565	709.3
363.06 K, x2 = 0.6978	647.2
363.06 K, x2 = 0.7871	611.7
